Test results from US11286241B2, “Compositions and methods for treating cancer” (GLAX LLC, priority 2018, dated 2022).
“Also recorded” adds a separate entry of the source.

Assays:
[1] = test system: pancreatic cancer xenograft; assay: Xenografted tumor growth, pancreatic cancer model (FIG. 18); assay type: in vivo
[2] = test system: Gli1, Patched-1, Cyclin D1, Bcl-2, and Nanog; assay: Expression of Gli target genes in breast cancer cells (FIG. 12F); assay type: cell-based
[3] = test system: colorectal cancer HCT116 cells; assay: Combination apoptosis in colorectal cancer HCT116 cells; assay type: cell-based; conditions: with PF05212384, listed as SST7
[4] = test system: human normal ductal epithelial (HMEC) cells; assay: Cell viability of normal ductal epithelial cells (FIG. 12D); assay type: cell-based
[5] = test system: pancreatic cancer AsPC-1 cells; assay: Apoptosis in pancreatic cancer AsPC-1 cells; assay type: cell-based
breast cancer xenograft = assay: Xenografted tumor growth, breast cancer model (FIG. 18); assay type: in vivo
[6] = test system: human breast cancer cells; assay: Combination cell viability in human breast cancer cells (FIG. 17); assay type: cell-based
lung cancer A549 cells = assay: Apoptosis in lung cancer cells (FIG. 14); assay type: cell-based
[7] = test system: human breast cancer cells; assay: Cell viability of human breast cancer cells (FIG. 12D); assay type: cell-based
[8] = test system: prostate cancer PC-3 cells; assay: Apoptosis in prostate cancer cells (FIG. 14); assay type: cell-based
liver cancer xenograft = assay: Xenografted tumor growth, liver cancer model (FIG. 18); assay type: in vivo
pancreatic cancer cells = assay: Combination cell viability in pancreatic cancer cells (FIG. 17); assay type: cell-based, human
[9] = test system: prostate cancer PC-3 cells; assay: Combination apoptosis in prostate cancer PC-3 cells; assay type: cell-based; conditions: with PF05212384
liver cancer HEPG2 cells = assay: Apoptosis in liver cancer HEPG2 cells; assay type: cell-based
human brain cancer cells = assay: Cell viability of human brain cancer cells (FIG. 15); assay type: cell-based
[10] = test system: human normal pancreatic ductal epithelial (HPNE) cells; assay: Cell viability of normal pancreatic ductal epithelial cells (FIG. 12C); assay type: cell-based
human normal hepatocytes = assay: Cell viability of normal hepatocytes (FIG. 13); assay type: cell-based
brain cancer stem cells = assay: Cell viability of brain cancer stem cells (FIG. 15); assay type: cell-based, human
Gli reporter = Gli reporter activity (FIG. 12E); assay type: cell-based
[11] = test system: human pancreatic cancer cells; assay: Cell viability of human pancreatic cancer cells (FIG. 12A, B); assay type: cell-based
[12] = test system: human prostate cancer cells; assay: Combination cell viability in human prostate cancer cells (FIG. 16); assay type: cell-based; conditions: with PF05212384 (PI3K/mTOR dual inhibitor)
[13] = test system: hepatocarcinoma (HCC)/liver cancer cells; assay: Cell viability of hepatocarcinoma cells (FIG. 13); assay type: cell-based
[14] = test system: prostate cancer DU145 cells; assay: Combination apoptosis in prostate cancer DU145 cells; assay type: cell-based; conditions: with PF05212384
liver cancer HEP3B cells = assay: Combination apoptosis in liver cancer HEP3B cells; assay type: cell-based; conditions: with PF05212384, listed as SST7
[15] = test system: prostate cancer xenograft; assay: Xenografted tumor growth, prostate cancer model (FIG. 18); assay type: in vivo
Gli pathway = Gli pathway in HCC (FIG. 13); assay type: cell-based
[16] = with histone deacetylase inhibitor SAHA

OC(CNc1ccc(Cl)cc1)CNc1ccc(-c2nc3ccccc3o2)cc1 (stereo not shown) [Compound 8, 1-(4-(benzo[d]oxazol-2-yl)phenylamino)-3-(4-chlorophenylamino)propane-2-ol]
xenografted tumor growth [1]: inhibits xenografted tumor growth | expression of Gli1, Patched-1, Cyclin D1, Bcl-2, and Nanog [2]: inhibits | apoptosis, combination [3]: synergistic; also recorded: act in a cooperative manner to induce apoptosis | cell viability [4]: has no effect | apoptosis [5]: induces apoptosis | xenografted tumor growth (breast cancer xenograft): inhibits xenografted tumor growth | cell viability, combination ([6]; with PF05212384): co-operates | cell viability, combination [6, 16]: co-operates | apoptosis (lung cancer A549 cells): induces apoptosis | cell viability [7]: inhibits cell viability | apoptosis [8]: induces apoptosis | xenografted tumor growth (liver cancer xenograft): inhibits xenografted tumor growth | cell viability, combination (pancreatic cancer cells; with PF05212384): co-operates | cell viability, combination (pancreatic cancer cells; [16]): co-operates | apoptosis, combination [9]: act in a cooperative manner to induce apoptosis | apoptosis (liver cancer HEPG2 cells): induces apoptosis | cell viability (human brain cancer cells): inhibits cell viability | cell viability [10]: has no effect | cell viability (human normal hepatocytes): has no effect | cell viability (brain cancer stem cells): inhibits cell viability | Gli reporter activity (Gli reporter): inhibits | cell viability [11]: inhibits cell viability | cell viability, combination [12]: co-operates | cell viability [13]: inhibits cell viability | apoptosis, combination [14]: act in a cooperative manner to induce apoptosis | apoptosis, combination (liver cancer HEP3B cells): synergistic; also recorded: act in a cooperative manner to induce apoptosis | xenografted tumor growth [15]: inhibits xenografted tumor growth | Gli pathway (Gli pathway): inhibits Gli pathway
